Measurements published in PMC11239830, “Synthetic macrolides overcoming MLSBK-resistant pathogens” (Cell Discovery, 2024).
≈ marks a conversion by molar mass, not a printed value. Where two headings read alike, the source gives them in different places.

Tests used:
S. pyogenes = assay: MIC, broth microdilution; format: cell-based, Streptococcus pyogenes
Procedure, shortened: (§1)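 Read-out is the lowest concentration without observed growth after 16–20 h at 37 °C, using the CLSI broth microdilution method.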

[1] = CCK-8 assay for cytotoxicity; format: cell-based, human; conditions: human, HEK293T cells, HEK293T cell viability
Experimental: HepG2 cells (6 × 10^3) and HEK293T cells (4 × 10^3) were seeded into 96-well plates in 90 μL of DMEM medium containing 10% FBS per well. […] After overnight incubation, the test compound stock solution was diluted with DMEM medium containing 10% FBS to every target concentration, and 10 μL of each was added to each well. Three parallel experiments were set up for each compound. After incubation for 48 h, 10 μL of cell counting kit-8 (CCK-8) reagent was added to each well in sequence according to the manufacturer’s instructions. […] This experiment was independently repeated three times. The data were processed by GraphPad Prism.

S. pneumoniae = assay: MIC, broth microdilution; format: cell-based, Streptococcus pneumoniae
Procedure, shortened: as §1

[2] = test system: 15B196 S. aureus ribosomes (A2058-methylated); assay: PURE in vitro translation inhibition assay; format: biochemical, Staphylococcus aureus; conditions: mean ± SD
Experimental: (§2) To validate the in vitro activity of our compounds, we employed an in vitro reconstituted E. coli Protein synthesis Using a Recombinant Elements (PURE) translation system, substituting E. coli ribosomes with the purified S. aureus ribosomes.
(§3) 5 μL of PURE reaction mix that translates a gene encoding the Nanoluc luciferase was set up in the presence or absence of tested compounds. Protein synthesis was initiated by incubating reactions at 37 °C for 60 min and stopped by placing on ice for 5 min. Luciferase activity was quantified using the Nano-Glo luciferase assay system and read on a GloMax 20/20 luminometer (Promega, USA). For each compound, the in vitro translation inhibition assay was performed in three biological triplicates over a range of concentrations from 0.001 μM to 1000 μM. A compound-free control was used to normalize luminescence measurements. The calculated luminescence percentages were plotted against compound concentrations on a semilog scale using GraphPad Prism.

WT S. aureus ribosomes = assay: PURE in vitro translation inhibition assay; format: biochemical, Staphylococcus aureus; conditions: mean ± SD
Experimental: as §2, §3

S. aureus = assay: MIC, broth microdilution; format: cell-based, Staphylococcus aureus; conditions: Staphylococcus aureus, read-out: MIC
Procedure, shortened: as §1

H. influenzae = assay: MIC, broth microdilution; format: cell-based, Haemophilus influenzae; conditions: Haemophilus influenzae, ATCC49247, H. influenzae ATCC49247, Azi-S; read-out: MIC
Procedure, shortened: as §1

M. catarrhalis = assay: MIC, broth microdilution; format: cell-based, Moraxella catarrhalis; conditions: Moraxella catarrhalis; M. catarrhalis 13L332, Ery-S; read-out: MIC
Experimental: MICs were determined by the microdilution method according to the Clinical and Laboratory Standards Institute guidelines. Briefly, the stock solution of compounds and the reference antibiotics were diluted 2-fold in sterile 96-well plates with cation-adjusted Mueller-Hinton broth, and mixed with CAMHB-containing bacteria to give a final inoculum of 5 × 10^5 CFU/mL for broth microdilution experiments. […] Finally, the 96-well plates were incubated at 37 °C for 16–20 h to observe and record the results. The lowest concentration at which no bacterial growth could be observed visually was identified as the MICs of the compounds. The assay for MICs was replicated at least three times.

[3] = In vivo pharmacokinetic study; design: species or system SD rats; conditions: SD (Sprague-Dawley), rat, iv, plasma
Experimental: The SD rats were fasted overnight and dosed i.v. at a dose of 5 mg/kg in a solution of DMSO/PEG 400/water (5%/24%/71%). The whole blood was collected into tubes containing sodium heparin at 0.083 h, 0.25 h, 0.5 h, 1 h, 2 h, 4 h, 8 h and 24 h after dosing. After centrifugation of 6000 rpm for 10 min at 4 °C, plasma samples were transferred into 1.5 mL tubes and stored at –20 °C. Prior to analysis, the samples were thawed on ice. An amount of 50 μL of each plasma sample was added to a mixture of 50 μL of propranolol (300 ng/mL) and 100 μL of acetonitrile and centrifuged at 12,000 rpm at 4 °C for 10 min. The supernatant was diluted and analyzed by LC-MS/MS. The liquid chromatography was conducted on a Thermo Scientific Q Exactive HF-X (ThermoFisher Scientific, USA) instrument, employing an ACQUITY UPLC BEH C18 Column with dimensions of 130 Å, 1.7 µm, 2.1 mm × 100 mm. The liquid phase method employed gradient elution with mobile phases consisting of acetonitrile and an 0.1% aqueous formic acid solution. Mass spectrometry was conducted in positive ion mode. The quantification of drug concentration in plasma samples was performed using the internal standard method, and the obtained pharmacokinetic parameters were calculated using Phoenix WinNonlin software.

human ribosome = test system: human ribosome; design: method as in PMID 32601485; conditions: read-out: IC50, inhibition on human ribosome; cited from earlier work
[4] = Streptococcus pyogenes, S. pyogenes 12-206, c-ermTR, read-out: MIC
[5] = Streptococcus pneumoniae, ATCC49619, S. pneumoniae ATCC49619, Ery-S, read-out: MIC
[6] = Streptococcus pneumoniae, S. pneumoniae 07P390, c-ermB, read-out: MIC

Work on `CC[C@H]1OC(=O)[C@H](C)[C@@H](O[C@H]2C[C@@](C)(OC)[C@@H](O)[C@H](C)O2)[C@H](C)[C@@H](O[C@@H]2O[C@H](C)C[C@H](N(C)C)[C@H]2O)[C@](C)(O)C[C@@H](C)C(=O)[C@H](C)[C@@H](O)[C@]1(C)O` [erythromycin, reference compound] yielded an MIC (S. pyogenes; S. pyogenes 01-968, Clinical, i-ermB) of 1 µg/mL (≈ 1.36 µM), an MIC (S. pyogenes; S. pyogenes 12-207, Clinical, mef) of 16 µg/mL (≈ 21.8 µM) and an MIC (S. pyogenes; S. pyogenes 21K003, Clinical, mef) of 16 µg/mL (≈ 21.8 µM). The CC50 at 48 h [1] was > 100 µM, the MIC (S. pneumoniae; S. pneumoniae 21Q352, Clinical, i-MLSB) was 64 µg/mL (≈ 87.2 µM) and the MIC (S. pneumoniae; S. pneumoniae 21Q353, Clinical, i-MLSB) was 32 µg/mL (≈ 43.6 µM). For the same compound, the MIC (S. pneumoniae; S. pneumoniae 21X435, Clinical) was 0.03 µg/mL (≈ 0.0409 µM), the MIC (S. pneumoniae; S. pneumoniae ATCC49619) was 0.03 µg/mL (≈ 0.0409 µM) and the IC50 [2] was > 10 µM. For the same compound, the IC50 (WT S. aureus ribosomes) was 0.18 ± 0.03 µM.

Work on `CC[C@H]1OC(=O)[C@H](C)[C@@H](OC(=O)NCCCOCCC#Cc2ccc3c(=O)c(C(=O)O)c[nH]c3c2)[C@H](C)[C@@H](O[C@@H]2O[C@H](C)C[C@H](N(C)C)[C@H]2O)[C@](C)(OC)C[C@@H](C)C(=O)[C@H](C)[C@H]2NC(=O)O[C@@]21C` (hydrate or solvate) [95i] yielded a melting point of 163.7 to 164.9 °C.

With `CCOC(=O)c1cn(C)c2cc(C#CCCCCCCNC(=O)O[C@H]3[C@H](C)[C@@H](O[C@@H]4O[C@H](C)C[C@H](N(C)C)[C@H]4O)[C@](C)(OC)C[C@@H](C)C(=O)[C@H](C)[C@H]4NC(=O)O[C@]4(C)[C@@H](CC)OC(=O)[C@@H]3C)ccc2c1=O` (hydrate or solvate) [88h] the melting point was 141.1 to 142 °C.

For `CC[C@H]1OC(=O)[C@H](C)[C@@H](OC(=O)NCCCNCCC#Cc2ccc3c(=O)c(C(=O)O)cn(C4CC4)c3c2)[C@H](C)[C@@H](O[C@@H]2O[C@H](C)C[C@H](N(C)C)[C@H]2O)[C@](C)(OC)C[C@@H](C)C(=O)[C@H](C)[C@H]2NC(=O)O[C@@]21C` [98c], the MIC (S. aureus; S. aureus 15B196, c-ermB) was 256 µg/mL (≈ 257 µM), the MIC (S. aureus; S. aureus PU32, i-ermA) was 4 µg/mL (≈ 4.02 µM) and the MIC (S. pyogenes; [4]) was 2 µg/mL (≈ 2.01 µM). The melting point was 148.6 to 149.5 °C, the MIC (S. pneumoniae; [5]) was 0.5 µg/mL (≈ 0.503 µM) and the MIC (S. pneumoniae; [6]) was 2 µg/mL (≈ 2.01 µM). It also gave an MIC (S. pneumoniae; Streptococcus pneumoniae, S. pneumoniae PU09, mef, read-out: MIC) of 0.5 µg/mL (≈ 0.503 µM) and an MIC (H. influenzae) of 64 µg/mL (≈ 64.4 µM).

Work on `CC[C@H]1OC(=O)[C@H](C)[C@@H](OC(=O)NCCCCCCC#Cc2ccc3c(=O)c(C(=O)O)cn(C)c3c2)[C@H](C)[C@@H](O[C@@H]2O[C@H](C)C[C@H](N(C)C)[C@H]2O)[C@](C)(OC)C[C@@H](C)C(=O)[C@H](C)[C@H]2NC(=O)O[C@@]21C` (hydrate or solvate) [MCX-219] yielded a melting point of 179.5 to 180.3 °C.

Work on `CC[C@H]1OC(=O)[C@H](C)[C@@H](OC(=O)NCCCCCCC#Cc2ccc3c(=O)c(C(=O)O)c[nH]c3c2)[C@H](C)[C@@H](O[C@@H]2O[C@H](C)C[C@H](N(C)C)[C@H]2O)[C@](C)(OC)C[C@@H](C)C(=O)[C@H](C)[C@H]2NC(=O)O[C@@]21C` (hydrate or solvate) [88i] yielded a melting point of 162.9 to 166 °C.

For `CCOC(=O)c1cn(C)c2cc(C#CCCCCCCNC(=O)O[C@H]3[C@H](C)[C@@H](O[C@@H]4O[C@H](C)C[C@H](N(C)C)[C@H]4O)[C@](C)(OC)C[C@@H](C)C(=O)[C@H](C)[C@H]4NC(=O)O[C@]4(C)[C@@H](CC)OC(=O)[C@@H]3C)ccc2c1=O` [88h], the MIC (S. pyogenes; [4]) was 2 µg/mL (≈ 2.01 µM), the MIC (S. pneumoniae; [5]) was ≤ 0.008 µg/mL and the MIC (S. pneumoniae; Streptococcus pneumoniae, S. pneumoniae 05O173, c-ermB, mef, read-out: MIC) was 64 µg/mL (≈ 64.3 µM). It also gave an MIC (S. pneumoniae; [6]) of 0.5 µg/mL (≈ 0.502 µM), an MIC (M. catarrhalis) of 4 µg/mL (≈ 4.02 µM) and a Cmax ([3]; male SD rats, i.v. 5 mg/kg) of 2650 ± 250 ng/mL. It also gave an MRT ([3]; male SD rats, i.v. 5 mg/kg) of 1.64 ± 0.665 h, a Tmax ([3]; male SD rats, i.v. 5 mg/kg) of 4.8 min and a half-life ([3]; male SD rats, i.v. 5 mg/kg) of 2.63 ± 1.3 h. For the same compound, the AUC(0-inf) ([3]; male SD rats, i.v. 5 mg/kg, mean ± SD, n 3) was 1790 ± 90 ng·h/mL, the AUC(0-t) ([3]; male SD rats, i.v. 5 mg/kg, read-out: AUC0-24) was 1760 ± 100 ng·h/mL and the clearance ([3]; male, 5 mg/kg) was 46.5 mL/min/kg. The MIC (H. influenzae) was 32 µg/mL (≈ 32.2 µM).

`CC[C@H]1OC(=O)[C@H](C)[C@@H](OC(=O)NCCCOCCC#Cc2ccc3c(=O)c(C(=O)O)cn(C4CC4)c3c2)[C@H](C)[C@@H](O[C@@H]2O[C@H](C)C[C@H](N(C)C)[C@H]2O)[C@](C)(OC)C[C@@H](C)C(=O)[C@H](C)[C@H]2NC(=O)O[C@@]21C` (hydrate or solvate) [95c] showed a melting point of 163.6 to 163.9 °C.

In the case of `CCC1OC(=O)C(C)C(OC(=O)NCCCOCCC#Cc2ccc3c(=O)c(C(=O)O)cn(C4CC4)c3c2)C(C)C(OC2OC(C)CC(N(C)C)C2O)C(C)(OC)CC(C)C(=NOC)C(C)C2OC(=O)OC12C` (stereo not shown) (hydrate or solvate) [72c], the melting point is reported as 144.6 to 145.2 °C.

`CC[C@H]1OC(=O)[C@H](C)[C@@H](OC(=O)NCCCOCCC#Cc2ccc3c(=O)c(C(=O)O)cn(C)c3c2)[C@H](C)[C@@H](O[C@@H]2O[C@H](C)C[C@H](N(C)C)[C@H]2O)[C@](C)(OC)C[C@@H](C)C(=O)[C@H](C)[C@H]2NC(=O)O[C@@]21C` (hydrate or solvate) [MCX-190] showed a melting point of 157.9 to 158.8 °C.

`CC[C@H]1OC(=O)[C@H](C)[C@@H](OC(=O)NCCCCOCCC#Cc2ccc3c(=O)c(C(=O)O)cn(C)c3c2)[C@H](C)[C@@H](O[C@@H]2O[C@H](C)C[C@H](N(C)C)[C@H]2O)[C@](C)(OC)C[C@@H](C)C(=O)[C@H](C)[C@H]2NC(=O)O[C@@]21C` (hydrate or solvate) [96g] gave a melting point of 172.1 to 173.5 °C.

For `COC(=O)c1c(OC)cc2cc3c(c(O)c2c1C)C(=O)[C@]1(OC)C(=O)C=C(OC)[C@@H](O)[C@]1(O)C3=O` [TcmX, tetracenomycin X], the IC50 (human ribosome) is given as 10 µM.
